According to PubChem BioAssay (NCI):
Several values for one entry are separate records, joined by “and”; a condition that tells them apart may be missing. Equal entries are not always repeated.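 Dose response: 5 concentrations. Exposure: 48 h. Format: 96-well plates. Endpoint: linear interpolation; highest concentration if not reached. At the GI50, growth is halved. TGI: concentration producing complete growth inhibition.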

What was measured:
Experiment in all cases: growth of human tumour cells (NCI), 48 h
NCI-H23 lung = tested on: NCI-H23 lung
A549 NSCLC = tested on: A549 NSCLC
HOP-62 NSCLC = tested on: HOP-62 NSCLC
LOX IMVI melanoma = tested on: LOX IMVI melanoma
HT29 colon = tested on: HT29 colon
MDA-MB-435 = tested on: MDA-MB-435
SK-OV-3 ovarian = tested on: SK-OV-3 ovarian
IGROV1 ovarian = tested on: IGROV1 ovarian
CAKI-1 renal = tested on: CAKI-1 renal
U251 CNS = tested on: U251 CNS

SMILES	TGI (NCI-H23 lung)	TGI (A549 NSCLC)	TGI (HOP-62 NSCLC)	TGI (LOX IMVI melanoma)	TGI (HT29 colon)	TGI (MDA-MB-435)	TGI (SK-OV-3 ovarian)	TGI (IGROV1 ovarian)	TGI (CAKI-1 renal)	TGI (U251 CNS)	GI50 (NCI-H23 lung)	GI50 (A549 NSCLC)	GI50 (HOP-62 NSCLC)	GI50 (LOX IMVI melanoma)	GI50 (HT29 colon)	GI50 (MDA-MB-435)	GI50 (SK-OV-3 ovarian)	GI50 (IGROV1 ovarian)	GI50 (CAKI-1 renal)	GI50 (U251 CNS)
C(=N\Nc1nnc2c(n1)[nH]c1ccccc12)/c1cccnc1	> 100 µM	> 100 µM	> 100 µM	> 100 µM	> 100 µM	> 100 µM	> 100 µM	> 100 µM	> 100 µM	> 100 µM										
CN(C)CCCNc1nn2c(=O)c3ccccc3nc2c2ccccc12	24.7 µM	25.2 µM	21.5 µM	17.2 µM	14.7 µM	22.5 µM	22.8 µM	47.8 µM	25.3 µM	26.5 µM	5.89 µM	5.64 µM	8.26 µM	3.8 µM	3.46 µM	6.24 µM	5.43 µM	6.19 µM	4.49 µM	10.8 µM
S=c1nc(-c2ccccc2)oc(=NC2CCCCC2)n1C1CCCCC1	19.6 µM	8.21 µM	23.1 µM	20.8 µM	14.8 µM	8.82 µM	> 100 µM	8.13 µM	6.38 µM	15.2 µM	4.21 µM	2.26 µM	5.9 µM	4.89 µM	4.1 µM	3.36 µM	5.05 µM	3 µM	1.99 µM	3.85 µM
COc1ccc2c(c1)CCC1C2CC[C@@]2(C)C1CC[C@@]2(O)CNC(=O)/C=C/c1ccc(O)c(OC)c1 (some centres not stated)	> 100 µM	> 100 µM	> 100 µM	20.5 µM	10.8 µM	> 100 µM	> 100 µM	> 100 µM	> 100 µM	76.6 µM	25.5 µM	22.3 µM	31.8 µM	7.76 µM	2.8 µM	4.95 µM	66.1 µM	4.66 µM	21.9 µM	19 µM
CC(C)C[C@H](NC(=O)[C@H](CCc1ccccc1)NC(=O)CN1CCOCC1)C(=O)N[C@@H](Cc1ccccc1)C(=O)N[C@@H](CC(C)C)C(=O)[C@@]1(C)CO1	0.115 µM	0.204 µM	< 0.0229 µM	0.0135 µM	0.0471 µM	0.0173 µM	0.282 µM		0.781 µM	0.0632 µM	< 0.015 µM	0.0203 µM	< 0.0139 µM	< 0.01 µM	< 0.01 µM	< 0.01 µM	0.0253 µM	0.0324 µM	0.109 µM	< 0.0127 µM
C/C1=C\[C@H](C)C[C@H](C)OC(=O)C[C@H](c2ccc(O)cc2)NC(=O)[C@@H](Cc2c(Br)[nH]c3ccccc23)N(C)C(=O)[C@H](C)NC(=O)[C@@H](C)C1	1.05 µM		0.443 µM and 0.369 µM	0.317 µM and 0.0533 µM	0.897 µM and 8.94 µM	17.7 µM	0.579 µM and 0.0749 µM	0.265 µM and 0.0602 µM	0.2 µM and 0.0985 µM	0.859 µM and 0.74 µM	0.114 µM	0.0318 µM	0.0883 µM	0.0135 µM	0.0216 µM	0.0445 µM	0.0267 µM	0.023 µM	0.0272 µM	0.0328 µM
CCN1CCN(c2nc(NNC(=O)Cc3ccccc3)nc(N3CCN(C(c4ccccc4)c4ccccc4)CC3)n2)CC1	18.8 µM	5.23 µM	5.08 µM	3.43 µM	5.66 µM	3.2 µM	4.48 µM	5.02 µM	3.31 µM	3.6 µM	5.51 µM	2.17 µM	2.06 µM	1.89 µM	2.24 µM	1.75 µM	2.09 µM	2.03 µM	1.7 µM	1.78 µM
Nc1[nH]c(=O)ncc1F	> 100 µM	> 100 µM	> 100 µM	> 100 µM	> 100 µM	> 100 µM	> 100 µM	> 100 µM	> 100 µM	> 100 µM										
CCCS(=O)(=O)Nc1ccc(F)c(C(=O)c2c[nH]c3ncc(-c4ccc(Cl)cc4)cc23)c1F	26.6 µM and > 10 µM	25 µM and > 10 µM	21.6 µM and > 10 µM	15.2 µM and > 10 µM	9.55 µM and > 10 µM	8.86 µM and > 10 µM	19 µM and > 10 µM	14.4 µM and > 10 µM	16.5 µM and > 10 µM	15.9 µM and > 10 µM	7.82 µM and > 10 µM	3.46 µM and 6.38 µM	7.39 µM and > 8.12 µM	1.47 µM and 1.27 µM	0.0887 µM and 0.0812 µM	0.107 µM and 0.153 µM	4.19 µM and 3.38 µM	3.52 µM and 3.63 µM	2.63 µM and 2.81 µM	3.37 µM and 4.02 µM
COc1ccc(N2CCN(C(=O)c3ccccc3Nc3ccnc(C(F)(F)F)c3)CC2)cc1	> 100 µM	> 100 µM	> 100 µM	> 100 µM	> 100 µM	> 100 µM	> 100 µM	93.6 µM	> 100 µM	> 100 µM	17.3 µM	61.5 µM	54.8 µM	60.1 µM	77.1 µM	38 µM	> 100 µM	13.7 µM	48.8 µM	83.9 µM
Cl.[Pt].[c-]1ccccc1-c1ccccn1.c1ccc(P(c2ccccc2)C([PH+](c2ccccc2)c2ccccc2)[PH+](c2ccccc2)c2ccccc2)cc1	18.4 µM	15.1 µM	9 µM	4.6 µM	8.13 µM	6.65 µM	> 100 µM	> 100 µM	13.1 µM	2.69 µM	1.19 µM	1.32 µM	2.39 µM	1.65 µM	2.3 µM	2.45 µM	3.57 µM	2.18 µM	1.81 µM	0.577 µM
NC(=O)CCC(NC(=O)OCc1ccccc1)C(=O)OCC(=O)c1ccccc1 (configuration not stated)	> 100 µM	> 100 µM	> 100 µM	> 100 µM	> 100 µM	> 100 µM	> 100 µM	> 100 µM	> 100 µM	> 100 µM	> 100 µM	> 100 µM	> 100 µM	> 100 µM	> 100 µM	> 100 µM	> 100 µM	> 100 µM	> 100 µM	> 100 µM
O=C(c1ccccc1)C1C(C(=O)c2ccccc2)N1Cc1ccccc1 (configuration not stated)	> 100 µM	> 100 µM	> 100 µM	> 100 µM	> 100 µM	68.3 µM	> 100 µM	> 100 µM	> 100 µM	> 100 µM										
CN(C)c1ccc(/C=C2\C[C@H]3[C@@H]4CC=C5C[C@@H](N6CCCC6)CC[C@]5(C)[C@H]4CC[C@]3(C)[C@H]2O)cc1	9.93 µM and 58 µM	4.41 µM and 15.3 µM	7.14 µM and 12.9 µM	1.57 µM and 4.72 µM	3.54 µM and 15.1 µM	5.37 µM	13 µM and > 100 µM	2 µM and 8.53 µM	3.88 µM and 23.9 µM	1.92 µM and 3.31 µM	16.8 µM	3.79 µM	2.98 µM	2.25 µM	3.17 µM		14.7 µM	3.92 µM	1.99 µM	1.78 µM
Cc1ccc(Cl)cc1Nc1nc(C(F)(F)F)ccc1C(=O)Nc1cccc(C(F)(F)F)c1	11.9 µM	11.7 µM	10.3 µM	13.2 µM	12.8 µM	13.9 µM	5.47 µM	13.4 µM	18.1 µM	14.5 µM	2.63 µM	2.93 µM	2.69 µM	3.73 µM	2.82 µM	3.61 µM	1.74 µM	1.69 µM	4.14 µM	3.68 µM
O=C(NCc1cccnc1)/C(=C\c1ccc(Br)cc1)S(=O)(=O)c1ccccc1	2.3 µM	3.31 µM	3.63 µM	1.73 µM	3.92 µM	1.73 µM	5.97 µM	2.11 µM	2.22 µM	2.23 µM	0.935 µM	1.48 µM	1.64 µM	0.45 µM	0.514 µM	0.477 µM	2.7 µM	0.636 µM	1.02 µM	0.774 µM
C=C1CCC2C3(C)COC(c4ccc(NC(C)=O)cc4)OC3CCC2(C)C1C/C=C1/C(=O)OCC1O (configuration not stated)	> 100 µM	> 100 µM	> 100 µM	> 100 µM	> 100 µM	> 100 µM	> 100 µM	> 100 µM	> 100 µM	> 100 µM	5.13 µM	5.03 µM	> 100 µM	21 µM	5.35 µM	8.8 µM	> 100 µM	> 100 µM	4.71 µM	79 µM
Cn1nc(C(F)(F)F)c(-c2ccc(Cl)c(C(F)(F)F)c2)c1-c1ccc(OCc2ccc(Cl)cc2)cc1O	4.83 µM	6.16 µM	6.04 µM	5.73 µM	5.42 µM	6.27 µM	4.32 µM	8.47 µM	5.62 µM	5.62 µM	1.41 µM	1.66 µM	1.58 µM	1.58 µM	1.62 µM	1.63 µM	1.42 µM	2.18 µM	1.48 µM	1.66 µM
CC(=O)Oc1ccc(OC(C)=O)c2ccccc12	27.5 µM	> 100 µM	25.3 µM	30.7 µM	> 100 µM	15 µM	27.1 µM	11.5 µM	23.3 µM	27.2 µM	12.7 µM	34.9 µM	12.6 µM	14.8 µM	34.6 µM	3.86 µM	14.1 µM	3.2 µM	6.79 µM	13.8 µM
